Experimental data taken from paper PMC5011342, “A high throughput drug screening assay to identify compounds that promote oligodendrocyte differentiation using acutely dissociated and purified oligodendrocyte precursor cells” (BMC Research Notes, 2016).
Structures can show the parent of a compound that is named as a salt. Where two headings read alike, the source gives them in different places.

How the values were obtained:
[1] = tested on: acutely dissociated and purified rat OPCs; assay: Acute OL differentiation assay (MBP expression/cell, immunofluorescent image quantification); type: cell-based; details: sheet "All OLga data", relative to quetiapine
Summary of the method: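 This acute differentiation assay used purified rat OPCs from postnatal day 6–7 pups, seeded into PDL/laminin-coated 96-well plates in differentiation medium lacking PDGF and FGF. Compounds were applied in quadruplicate after a 1–2 h preincubation at 37 °C, 10 % CO2, with 0.1 % DMSO negative and 40 ng/ml T3 positive controls in eight wells. After fixation on DIV4, anti-MBP immunofluorescence images yielded MBP expression/cell.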

expanded OPCs = assay: cells; details: for viability at 0.1 µM / viability at 1 µM / viability at 10 µM: Rattus norvegicus, 72 h
Summary of the method: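 Toxicity screen: compounds added at 0.1, 1 and 10 µM to PDGF-AA-expanded OPCs in 96-well plates, 3-day incubation at 37 °C, 10% CO2, then alamarBlue 1:10 for 4 h with fluorescence readout. Results set screening doses of 10/2, 2/0.4 or 0.4/0.08 µM.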

[2] = read-out: 0.1 µM (% DMSO), alamarBlue viability, NCC library compound at 0.1 µM, sheet "All Tox data"
[3] = read-out: 1 µM (% DMSO), alamarBlue viability, NCC library compound at 1 µM, sheet "All Tox data"
[4] = read-out: 10 µM (% DMSO), alamarBlue viability, NCC library compound at 10 µM, sheet "All Tox data"
[5] = Rattus norvegicus, 2 uM test compound, read-out: OL differentiation, 2 uM (% Quet)
[6] = Rattus norvegicus, 10 uM test compound, read-out: OL differentiation, 10 uM (% Quet)
[7] = read-out: 0.1 µM (% DMSO), alamarBlue viability of expanded OPCs, compound at 0.1 µM, sheet All Tox data
[8] = read-out: 1 µM (% DMSO), alamarBlue viability of expanded OPCs, compound at 1 µM, sheet All Tox data
[9] = read-out: 10 µM (% DMSO), alamarBlue viability of expanded OPCs, compound at 10 µM, sheet All Tox data

Compound	activation at 2 µM [1, 5] [%]	activation at 10 µM [1, 6] [%]	viability at 0.1 µM (expanded OPCs; [7]) [%]	viability at 1 µM (expanded OPCs; [8]) [%]	viability at 10 µM (expanded OPCs; [9]) [%]	also measured
C[C@@H]1CN(CCCn2c3ccccc3c3ccccc32)C[C@H](C)N1 [Rimcazole]						activation at 0.08 µM ([1]; Rattus norvegicus, test compound at 0.08 uM, NCC library screen, read-out: 0.08 uM (% Quet)): -5.2%; activation at 0.4 µM ([1]; Rattus norvegicus, test compound at 0.4 uM, NCC library screen, read-out: 0.4 uM (% Quet)): 23.1%; viability at 0.1 µM (expanded OPCs; [2]): 61.7%; viability at 1 µM (expanded OPCs; [3]): 33.6%; viability at 10 µM (expanded OPCs; [4]): 9.5%
Cc1nc2n(c(=O)c1CCN1CCC(c3noc4cc(F)ccc34)CC1)CCCC2 [Risperidone]	2.4	31.6	92.3	99.8	90.2	
CC(C)c1nc(CN(C)C(=O)N[C@H](C(=O)N[C@@H](Cc2ccccc2)C[C@H](O)[C@H](Cc2ccccc2)NC(=O)OCc2cncs2)C(C)C)cs1 [Ritonavir]	-21.7	-35.8	96.5	97.4	69.8	
CN(C)CCc1c[nH]c2ccc(Cn3cncn3)cc12 [Rizatriptan]	-2.6	-0.44	110	94.8	86.3	
CS(=O)(=O)c1ccc(C2=C(c3ccccc3)C(=O)OC2)cc1 [Rofecoxib]	-10.8	-9	91.5	97.2	115	
COc1ccc(C2CNC(=O)C2)cc1OC1CCCC1 (centres unmarked) [Rolipram]	11.2	-14.2	97.1	92.8	86.8	
CN(C)[C@@H]1C(O)=C(C(=O)NCN2CCCC2)C(=O)[C@@]2(O)C(O)=C3C(=O)c4c(O)cccc4[C@@](C)(O)[C@H]3C[C@@H]12 [Rolitetracycline]						activation at 2 µM ([1]; Rattus norvegicus, test compound at 2 uM, NCC library screen, read-out: 2 uM (% Quet)): 1.5%; activation at 10 µM ([1]; Rattus norvegicus, test compound at 10 uM, NCC library screen, read-out: 10 uM (% Quet)): -11.1%; viability at 0.1 µM (expanded OPCs; [2]): 94.4%; viability at 1 µM (expanded OPCs; [3]): 92.4%; viability at 10 µM (expanded OPCs; [4]): 69.8%
CN(CCOc1ccc(CC2SC(=O)NC2=O)cc1)c1ccccn1 (centres unmarked) [Rosiglitazone maleate]	7.9		95.3	103	158	
CC(=O)OCC(=O)NCCCOc1cccc(CN2CCCCC2)c1 [Roxatidine acetate]	-1.7	8.2				viability at 0.1 µM (expanded OPCs; [2]): 101%; viability at 1 µM (expanded OPCs; [3]): 96%; viability at 10 µM (expanded OPCs; [4]): 85.7%
CN1CCN(c2c(F)cc3c(=O)c(C(=O)O)cn4c3c2SCC4)CC1 [Rufloxacin]	-26.4	7	98.3	89.1	103	
C[C@@H]1O[C@@H](OC[C@H]2O[C@@H](Oc3c(-c4ccc(O)c(O)c4)oc4cc(O)cc(O)c4c3=O)[C@H](O)[C@@H](O)[C@@H]2O)[C@H](O)[C@H](O)[C@H]1O [Rutin]	22.9	21.3	106	108	106	
CN1CC[C@]2(c3cccc(O)c3)Cc3nc4ccccc4cc3C[C@H]2C1 [SB 205607]						0.4 uM (% Quet) ([1]; test compound at 0.4 uM, NCC library screen): 15.0 % Quet; 2 uM (% Quet) ([1]; test compound at 2 uM, NCC library screen): 5.9 % Quet; 0.1 µM (% DMSO) (expanded OPCs; alamarBlue viability, NCC library compound at 0.1 µM, sheet "All Tox data"): 84.0 % DMSO; 1 µM (% DMSO) (expanded OPCs; alamarBlue viability, NCC library compound at 1 µM, sheet "All Tox data"): 78.4 % DMSO; 10 µM (% DMSO) (expanded OPCs; alamarBlue viability, NCC library compound at 10 µM, sheet "All Tox data"): 50.8 % DMSO
